From patent publication US10870647B2, “Imidazopyridine derivative, method for preparing same, and pharmaceutical composition containing same as active ingredient for preventing or treating cancer” (DAEGU-GYEONGBUK MEDICAL INNOVATION FOUNDATION, priority 2016, dated 2020)

Legend:
M-NFS-60 = assay: Cancer cell proliferation inhibition, CCK-8, 72 hours; assay type: cell-based
Method in brief: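 Cells were grown in RPMI with 10% FBS, 0.05 mM 2-mercaptoethanol and human M-CSF, and seeded at 20000 cells/well. Compounds were added from a 3-fold DMSO dilution series topping at 1968 nM (dilution-plate concentration; 11 points including DMSO control). After 72 h at 37 °C, CCK-8 was added for 2 h and OD450 read.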

FYN (FN) = assay: Cancer cell proliferation inhibition, MTS assay, 72 hours; assay type: cell-based
Method in brief: (§1)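 Read-out was OD450 after a 2 h MTS/PMS incubation at 37° C, following 72 h compound treatment. Cells had been plated at 3,000 cells/well and cultured 24 h beforehand; compound was serially diluted from a top of 50 μM with 0.05% DMSO as vehicle. IC50 derived from three data sets.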

FYN (MCP-1) = assay: as above; assay type: cell-based
Method in brief: as §1

Huh7 = assay: as above; assay type: cell-based; settings: Homo sapiens, Huh-7
Method in brief: as §1

Ret^Parental (Ba/F3) = assay: as above; assay type: cell-based; settings: Mus musculus, BaF3
Method in brief: as §1

Ret^V804M (Ba/F3) = target: T1, Ret^V804M (Ba/F3) (Homo sapiens, UniProt P07949, V804M, cells depend on it, form not given); assay: as above; assay type: cell-based; settings: read-out: Ret^V804M (Ba/F3) IC50
T1 construct: candidates are KIF5B, CCDC6, TEL (ETV6), or none (full-length RET)
T1 sequence (P07949 whole entry V804M, form open): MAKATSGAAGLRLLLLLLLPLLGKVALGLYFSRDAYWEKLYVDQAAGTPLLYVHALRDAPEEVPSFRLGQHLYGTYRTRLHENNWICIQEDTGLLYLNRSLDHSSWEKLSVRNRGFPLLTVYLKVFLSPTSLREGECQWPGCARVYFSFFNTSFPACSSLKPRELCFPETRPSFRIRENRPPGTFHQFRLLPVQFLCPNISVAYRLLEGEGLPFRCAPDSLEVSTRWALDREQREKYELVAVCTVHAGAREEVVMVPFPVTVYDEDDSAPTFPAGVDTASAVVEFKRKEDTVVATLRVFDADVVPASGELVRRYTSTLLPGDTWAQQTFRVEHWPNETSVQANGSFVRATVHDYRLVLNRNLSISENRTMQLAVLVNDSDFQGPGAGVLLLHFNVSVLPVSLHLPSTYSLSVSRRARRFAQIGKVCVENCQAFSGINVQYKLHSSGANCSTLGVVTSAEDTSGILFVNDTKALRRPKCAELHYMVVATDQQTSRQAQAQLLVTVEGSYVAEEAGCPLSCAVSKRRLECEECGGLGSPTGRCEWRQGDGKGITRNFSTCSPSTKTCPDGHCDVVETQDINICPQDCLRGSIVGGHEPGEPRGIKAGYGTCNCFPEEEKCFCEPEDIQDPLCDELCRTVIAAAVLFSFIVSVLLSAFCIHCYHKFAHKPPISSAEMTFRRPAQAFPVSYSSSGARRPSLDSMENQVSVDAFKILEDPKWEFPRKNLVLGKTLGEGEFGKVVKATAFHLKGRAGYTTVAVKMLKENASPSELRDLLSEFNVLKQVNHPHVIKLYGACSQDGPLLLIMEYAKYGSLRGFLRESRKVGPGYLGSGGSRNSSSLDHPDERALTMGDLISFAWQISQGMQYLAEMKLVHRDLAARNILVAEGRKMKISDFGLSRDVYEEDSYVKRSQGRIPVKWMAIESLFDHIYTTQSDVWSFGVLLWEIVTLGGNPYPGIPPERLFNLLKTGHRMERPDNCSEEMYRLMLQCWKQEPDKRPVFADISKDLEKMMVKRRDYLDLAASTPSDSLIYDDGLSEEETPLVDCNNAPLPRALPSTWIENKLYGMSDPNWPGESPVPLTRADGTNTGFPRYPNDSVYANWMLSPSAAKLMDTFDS
Method in brief: as §1

Ret^wt (Ba/F3) = target: T2, Ret^wt (Ba/F3) (Homo sapiens, UniProt P07949); assay: as above; assay type: cell-based; settings: read-out: Ret^wt (Ba/F3) IC50
T2 construct: candidates are KIF5B, CCDC6, TEL (ETV6), or none (full-length RET)
T2 sequence (P07949 whole entry, change not shown): as the sequence (P07949 whole entry V804M, form open) above, with M804V counted along it
Method in brief: as §1

SK-MEL-28 = assay: as above; assay type: cell-based; settings: Homo sapiens
Method in brief: as §1

LOK = target: T3, LOK (Homo sapiens, UniProt O94804); assay: Enzyme inhibitory activity (Kd), Reaction Biology Co.; assay type: binding
T3 construct: purchased Reaction Biology Co
T3 sequence (O94804 whole entry): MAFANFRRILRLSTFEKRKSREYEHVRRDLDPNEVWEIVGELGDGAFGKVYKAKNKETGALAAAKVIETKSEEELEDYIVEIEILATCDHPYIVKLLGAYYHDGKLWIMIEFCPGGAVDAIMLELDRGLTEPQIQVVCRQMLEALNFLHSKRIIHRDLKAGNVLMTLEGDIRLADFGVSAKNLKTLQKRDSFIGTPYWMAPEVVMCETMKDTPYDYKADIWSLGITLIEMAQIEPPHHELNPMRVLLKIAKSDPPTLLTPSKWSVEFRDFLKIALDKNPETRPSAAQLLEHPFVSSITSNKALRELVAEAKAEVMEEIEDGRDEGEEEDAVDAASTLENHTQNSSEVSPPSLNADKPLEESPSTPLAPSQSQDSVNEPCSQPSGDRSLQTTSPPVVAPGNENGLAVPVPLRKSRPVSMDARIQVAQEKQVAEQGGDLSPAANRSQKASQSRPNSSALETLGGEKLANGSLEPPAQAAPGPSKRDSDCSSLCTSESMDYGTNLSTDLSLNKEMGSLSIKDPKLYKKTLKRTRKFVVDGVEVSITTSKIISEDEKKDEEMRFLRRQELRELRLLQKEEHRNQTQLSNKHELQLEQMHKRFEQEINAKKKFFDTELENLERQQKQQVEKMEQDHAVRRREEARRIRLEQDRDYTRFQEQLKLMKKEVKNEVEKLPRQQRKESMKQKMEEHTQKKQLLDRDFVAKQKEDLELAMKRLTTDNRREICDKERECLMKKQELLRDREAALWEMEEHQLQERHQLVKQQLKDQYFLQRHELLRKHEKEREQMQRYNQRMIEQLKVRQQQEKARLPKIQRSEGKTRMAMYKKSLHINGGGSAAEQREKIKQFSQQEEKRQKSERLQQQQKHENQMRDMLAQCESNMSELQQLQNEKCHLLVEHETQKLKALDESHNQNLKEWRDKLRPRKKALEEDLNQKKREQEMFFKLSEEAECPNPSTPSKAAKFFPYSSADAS

[1] = target: T4, scanMAX Kinase assay panel (Homo sapiens, UniProt Q13131); assay: Kinase selectivity, scanMAX Kinase assay panel (DiscoverX), % control at 1 uM; assay type: binding; settings: AMPK-alpha1; 1 uM; read-out: Percent Control (%)
T4 construct: purchased DiscoverX
T4 sequence (Q13131 whole entry): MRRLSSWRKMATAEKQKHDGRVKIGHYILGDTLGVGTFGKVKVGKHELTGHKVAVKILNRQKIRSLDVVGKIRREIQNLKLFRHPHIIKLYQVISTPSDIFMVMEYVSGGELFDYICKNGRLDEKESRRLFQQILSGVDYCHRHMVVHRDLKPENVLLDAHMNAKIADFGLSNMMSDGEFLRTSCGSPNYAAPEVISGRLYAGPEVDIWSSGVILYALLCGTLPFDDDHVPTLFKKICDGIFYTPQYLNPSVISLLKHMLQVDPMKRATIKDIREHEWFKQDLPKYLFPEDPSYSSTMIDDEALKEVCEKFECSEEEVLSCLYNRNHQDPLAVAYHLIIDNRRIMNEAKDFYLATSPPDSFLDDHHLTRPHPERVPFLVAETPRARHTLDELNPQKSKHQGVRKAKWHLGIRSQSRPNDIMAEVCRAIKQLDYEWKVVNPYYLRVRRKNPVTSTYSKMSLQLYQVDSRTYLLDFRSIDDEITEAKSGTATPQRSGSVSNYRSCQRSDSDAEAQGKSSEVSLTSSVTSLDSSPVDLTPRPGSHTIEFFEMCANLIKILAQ
Method in brief: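 Compounds were tested at 1 uM in DMSO against each enzyme in the panel. Percent control was calculated as (compound − positive control)/(negative control − positive control) × 100, and a compound was scored active on a kinase when this value fell below 35.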

RET (LC2/ad-CDC6) = assay: Cancer cell proliferation inhibition, MTS assay, 72 hours; assay type: cell-based; settings: 72 h
Method in brief: as §1

FGFR4 = target: T5, FGFR4 (Homo sapiens, UniProt P22455); assay: Enzyme inhibitory activity (Kd), Reaction Biology Co.; assay type: binding
T5 construct: purchased Reaction Biology Co
T5 sequence (P22455 22-802): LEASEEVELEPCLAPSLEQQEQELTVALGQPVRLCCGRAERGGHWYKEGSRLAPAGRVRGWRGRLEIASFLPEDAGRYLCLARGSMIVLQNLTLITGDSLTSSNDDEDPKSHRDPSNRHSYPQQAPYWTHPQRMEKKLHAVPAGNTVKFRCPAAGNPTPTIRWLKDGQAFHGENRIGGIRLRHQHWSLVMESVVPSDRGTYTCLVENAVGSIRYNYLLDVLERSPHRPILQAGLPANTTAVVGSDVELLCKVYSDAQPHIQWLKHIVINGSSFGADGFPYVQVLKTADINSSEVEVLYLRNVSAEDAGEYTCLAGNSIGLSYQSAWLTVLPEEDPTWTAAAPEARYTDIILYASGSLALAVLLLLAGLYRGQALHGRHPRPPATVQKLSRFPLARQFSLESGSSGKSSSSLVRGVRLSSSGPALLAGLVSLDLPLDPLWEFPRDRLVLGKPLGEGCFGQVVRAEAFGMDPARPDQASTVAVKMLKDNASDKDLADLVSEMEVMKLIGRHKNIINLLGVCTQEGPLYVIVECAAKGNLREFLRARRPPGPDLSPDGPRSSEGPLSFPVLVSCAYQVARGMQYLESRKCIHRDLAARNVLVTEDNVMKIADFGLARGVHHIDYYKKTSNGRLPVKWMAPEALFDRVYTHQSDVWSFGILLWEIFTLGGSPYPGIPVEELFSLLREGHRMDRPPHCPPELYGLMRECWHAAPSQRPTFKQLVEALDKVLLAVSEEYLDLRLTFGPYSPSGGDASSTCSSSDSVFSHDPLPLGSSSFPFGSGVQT

[2] = target: T6, JAK2(JH1domain-catalytic) (Homo sapiens, UniProt O60674); assay: as above; assay type: binding
T6 construct: JAK2 (JH1domain-catalytic); purchased Reaction Biology Co
T6 sequence (O60674 849-1124 limits assumed): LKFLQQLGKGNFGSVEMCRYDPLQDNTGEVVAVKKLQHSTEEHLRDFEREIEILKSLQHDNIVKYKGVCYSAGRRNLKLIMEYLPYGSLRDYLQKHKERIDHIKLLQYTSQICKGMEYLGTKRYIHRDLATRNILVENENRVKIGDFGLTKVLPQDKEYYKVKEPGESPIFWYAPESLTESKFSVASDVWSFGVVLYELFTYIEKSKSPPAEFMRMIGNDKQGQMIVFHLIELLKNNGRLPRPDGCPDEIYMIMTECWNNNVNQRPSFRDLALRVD

RET = target: T7, RET (Homo sapiens, UniProt P07949); assay: as above; assay type: binding
T7 construct: purchased Reaction Biology Co
T7 sequence (P07949 29-1114): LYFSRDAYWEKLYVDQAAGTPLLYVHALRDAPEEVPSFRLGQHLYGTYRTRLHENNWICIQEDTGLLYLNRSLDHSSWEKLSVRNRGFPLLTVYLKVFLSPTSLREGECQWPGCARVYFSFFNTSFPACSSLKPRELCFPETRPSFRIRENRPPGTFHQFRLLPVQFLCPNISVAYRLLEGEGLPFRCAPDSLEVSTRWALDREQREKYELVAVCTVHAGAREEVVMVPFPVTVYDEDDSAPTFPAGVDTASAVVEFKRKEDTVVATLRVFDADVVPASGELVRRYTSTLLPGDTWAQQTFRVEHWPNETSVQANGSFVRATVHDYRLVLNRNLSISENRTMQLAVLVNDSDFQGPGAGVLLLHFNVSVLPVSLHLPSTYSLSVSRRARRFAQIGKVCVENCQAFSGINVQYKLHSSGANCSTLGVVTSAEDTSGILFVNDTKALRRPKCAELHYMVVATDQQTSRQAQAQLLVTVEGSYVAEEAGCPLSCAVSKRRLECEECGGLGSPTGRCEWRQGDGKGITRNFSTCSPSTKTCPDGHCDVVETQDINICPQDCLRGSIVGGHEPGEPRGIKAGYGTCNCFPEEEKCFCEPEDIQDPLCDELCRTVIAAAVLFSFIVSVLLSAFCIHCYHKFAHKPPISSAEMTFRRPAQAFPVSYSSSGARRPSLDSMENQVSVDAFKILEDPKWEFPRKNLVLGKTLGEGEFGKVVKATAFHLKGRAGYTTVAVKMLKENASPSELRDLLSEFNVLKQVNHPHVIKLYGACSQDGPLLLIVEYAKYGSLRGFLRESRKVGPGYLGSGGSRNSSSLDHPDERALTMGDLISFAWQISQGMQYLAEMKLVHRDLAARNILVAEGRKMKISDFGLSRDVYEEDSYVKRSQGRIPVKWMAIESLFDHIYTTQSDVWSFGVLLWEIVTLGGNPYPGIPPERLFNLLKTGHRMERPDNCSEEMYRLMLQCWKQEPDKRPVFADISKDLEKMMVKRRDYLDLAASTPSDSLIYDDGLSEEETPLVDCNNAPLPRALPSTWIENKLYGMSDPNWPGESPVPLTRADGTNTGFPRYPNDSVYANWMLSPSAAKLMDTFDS

RET(V804M) = target: T8, RET(V804M) (Homo sapiens, UniProt P07949, V804M); assay: as above; assay type: binding
T8 construct: purchased Reaction Biology Co
T8 sequence (P07949 29-1114 V804M): as the sequence (P07949 29-1114) above, with V776M counted along it

Row | IC50 (FYN (FN)) [µM] | SMILES | IC50 (M-NFS-60) [µM] | IC50 (FYN (MCP-1)) [µM] | IC50 (Huh7) [µM] | IC50 (Ret^Parental (Ba/F3)) [µM] | GI50 (Ret^V804M (Ba/F3)) [µM] | GI50 (Ret^wt (Ba/F3)) [µM] | IC50 (SK-MEL-28) [µM] | Kd (LOK) [µM] | remaining binding at 1 µM [1] [%] | IC50 (RET (LC2/ad-CDC6)) [µM] | Kd (FGFR4) [µM] | Kd [2] [µM] | Kd (RET) [µM] | Kd (RET(V804M)) [µM]
1 | < 0.1 | Cc1ccc(C(=O)Nc2cccc(C(F)(F)F)c2)cc1C#Cc1cnc2c(Nc3cnn(C4CCNCC4)c3)cccn12 [Example 11, 4-methyl-3-((8-((1-(piperidin-4-yl)-1H-pyrazol-4-yl)amino)imidazo[1,2-a]pyridin-3-yl)ethynyl)-N-(3-(trifluoromethyl)phenyl)benzamide] | 0.0308 | < 0.1 | 1.22 | 2.4 | 0.098 | 0.005 | 1.46 | – | – | – | – | – | – | –
2 | – | Cc1ccc(NC(=O)C2(C(=O)Nc3ccc(F)cc3)CC2)cc1C#Cc1cnc2c(Nc3cnn(C(C)C)c3)cccn12 [Example 78] | 0.672 | – | 5.12 | – | – | – | 4.55 | 0.037 | 100 | < 10 | – | – | – | –
3 | < 1 | CCN1CCN(Cc2ccc(NC(=O)c3ccc(C)c(C#Cc4cnc5c(Nc6cnn(C)c6)cccn45)c3)cc2C(F)(F)F)CC1 [Example 8, N-(4-((4-ethylpiperazin-1-yl)methyl)-3-(trifluoromethyl)phenyl)-4-methyl-3-((8-((1-methyl-1H-pyrazol-4-yl)amino)imidazo[1,2-a]pyridin-3-yl)ethynyl)benzamide] | 0.0341 | < 1 | 0.255 | 1.32 | 0.01 | 0.002 | 0.586 | – | – | – | 0.057 | 0.27 | 0.0075 | 0.0091
4 | – | Cc1ccc(C(=O)Nc2ccc(CN3CCN(C)CC3)c(C(F)(F)F)c2)cc1C#Cc1cnc2c(Nc3cnn(C)c3)cccn12 [Example 1, 4-methyl-3-((8-((1-methyl-1H-pyrazol-4-yl)amino)imidazo[1,2-a]pyridin-3-yl)ethynyl)-N-(4-((4-methylpiperazin-1-yl)methyl)-3-(trifluoromethyl)phenyl)benzamide] | 0.0646 | 0.73 | 0.065 | 1.21 | 0.005 | 0.003 | 0.334 | 0.0073 | 7 | < 0.01 | 0.056 | 0.22 | 0.01 | 0.011

Row | SMILES | IC50 (FYN (FN)) [µM] | IC50 (M-NFS-60) [µM] | IC50 (FYN (MCP-1)) [µM] | IC50 (Huh7) [µM] | IC50 (Ret^Parental (Ba/F3)) [µM] | GI50 (Ret^V804M (Ba/F3)) [µM] | GI50 (Ret^wt (Ba/F3)) [µM] | IC50 (SK-MEL-28) [µM] | Kd (LOK) [µM] | remaining binding at 1 µM [1] [%] | IC50 (RET (LC2/ad-CDC6)) [µM] | Kd (FGFR4) [µM] | Kd [2] [µM] | Kd (RET) [µM] | Kd (RET(V804M)) [µM]
5 | Cc1cn(-c2cc(NC(=O)c3ccc(C)c(C#Cc4cnc5c(Nc6cnn(C)c6)cccn45)c3)cc(C(F)(F)F)c2)cn1 [Example 12, 4-methyl-N-(3-(4-methyl-1H-imidazol-1-yl)-5-(trifluoromethyl)phenyl)-3-((8-((1-methyl-1H-pyrazol-4-yl)amino)imidazo[1,2-a]pyridin-3-yl)ethynyl)benzamide] | < 0.1 | 0.247 | < 0.1 | 0.147 | – | 0.054 | 0.017 | > 10 | – | 74 | < 0.1 | 0.37 | – | 0.025 | 0.032
